Tests used:
[1] = Stability test in liver microsomes (rat); type: in vitro ADME; conditions: rat liver microsomes 0.5 mg/mL, 1 μM compound
Experimental: (§1) Both male CD-1 mouse pooled liver microsomes and male SD rat pooled liver microsomes were purchased from BioreclamationIVT Corporation, USA.
(§2) The test compound stock solution was diluted with an organic solvent (usually a mixture of acetonitrile, methanol and water with various ratios, depending on the solubility of the compound, if necessary, 1 N hydrochloric acid or 1 N sodium hydroxide would be added to facilitate solubilization) to the 0.1 mM (the final concentration of the compound in the reaction system was 1 μM) and the concentration percentage of the organic solvents in the incubation system no more than 1% (wherein the percentage of DMSO was required to be no more than 0.1%). An appropriate amount of 100 mM NADP, 500 mM G-6-P and 100 Unit/mL G-6-PDH were mixed and diluted with ultrapure water (the final system contains 1 mM NADP, 5 mM G-6-P and 1 Unit/mL G-6-PDH), pre-incubated in a 37° C. water bath for 10 minutes and then placed on ice for use as a NADPH regeneration solution. 20 mg/mL liver microsomes solution and 200 mM phosphate buffer were mixed, and diluted with ultrapure water to give a liver microsomes solution containing 2.5 mg/mL liver microsomes (the final concentration of the reaction system is 0.5 mg/mL) and 50 mM phosphate buffer. The diluted liver microsomes solution was mixed with 0.1 mM compound solution, a mixture of 100 mM EDTA, 300 mM MgCl2 solution, 200 mM phosphate buffer (the final system was 3 mM MgCl2, 1 mM EDTA and 50 mM phosphate buffer) and water in an appropriate volume was added. Finally, the NADPH regeneration solution was added, then the reaction solution was placed in a 37° C. water bath to start the reaction (the reaction time was 30 minutes), and the reaction was stopped by adding the ice-cold acetonitrile reaction stopping solution containing the internal standard. The 0-minute sample was not incubated in a 37° C. water bath, and its difference from the 30-minute sample further lies in that the ice-cold acetonitrile reaction stopping solution containing the internal standard was added first, and then the NADPH regeneration solution was added. The sample added with the reaction stopping internal standard solution was vortexed and mixed well, and then centrifuged at 4400 rpm for 10 minutes. The supernatant was taken and diluted ten times with 50% methanol for LC-MS/MS analysis.
(§3) LC-MS/MS was used to determine the concentration of the compound in the sample. The percentage of the remaining compound after 30 minutes of incubation comparing with that in the 0-minute sample was calculated using the peak area ratio of the compound to the internal standard as an indicator, to evaluate the metabolic stability of the compound.

[2] = Stability test in liver microsomes (mouse); type: in vitro ADME; conditions: mouse liver microsomes 0.5 mg/mL, 1 μM compound
Experimental: as §1, §2, §3

[3] = target: BTK recombinant protein (Homo sapiens (Human), UniProt Q06187); test: Determination of biochemical BTK (Z'-LYTE kinase assay); conditions: 32 μM ATP
Chain of BTK recombinant protein (Q06187 whole entry): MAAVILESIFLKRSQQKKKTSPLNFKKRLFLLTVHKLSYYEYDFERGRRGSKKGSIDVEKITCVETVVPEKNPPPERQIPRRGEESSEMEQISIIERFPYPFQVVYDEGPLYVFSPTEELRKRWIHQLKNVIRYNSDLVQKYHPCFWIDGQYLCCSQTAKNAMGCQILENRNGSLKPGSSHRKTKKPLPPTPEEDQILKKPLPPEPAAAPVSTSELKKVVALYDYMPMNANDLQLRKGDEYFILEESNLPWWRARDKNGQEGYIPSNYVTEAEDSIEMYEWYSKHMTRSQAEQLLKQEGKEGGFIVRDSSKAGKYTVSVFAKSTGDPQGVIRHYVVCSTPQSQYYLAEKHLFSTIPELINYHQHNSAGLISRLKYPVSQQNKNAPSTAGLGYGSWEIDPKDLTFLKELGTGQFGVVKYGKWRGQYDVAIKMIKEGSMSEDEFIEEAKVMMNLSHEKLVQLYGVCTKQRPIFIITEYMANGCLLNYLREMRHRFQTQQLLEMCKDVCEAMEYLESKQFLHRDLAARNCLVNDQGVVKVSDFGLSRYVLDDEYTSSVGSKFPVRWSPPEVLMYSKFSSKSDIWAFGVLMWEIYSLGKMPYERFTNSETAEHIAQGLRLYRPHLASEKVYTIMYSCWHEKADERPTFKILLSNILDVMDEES
Text: BTK recombinant protein: Invitrogen, Cat #PV3363;
Z′-LYTE® kinase test kit-tyrosine 1 peptide: Invitrogen, Cat #PV3190;
Z′-LYTE® biochemical assay employs a fluorescence resonance energy transfer (FRET)-based, coupled-enzyme format and is based on the differential sensitivity of phosphorylated and non-phosphorylated peptides to proteolytic cleavage. Both ends of the short peptide substrate are labeled with two fluorescent groups to form a FRET paired combination. In the primary reaction (the Kinase Reaction), the kinase transfers the γ-phosphate of ATP to a single […] residue on the short peptide substrate. In the secondary reaction (the development reaction), the non-phosphorylated short peptides were recognized and cleaved by a site-specific protease (the development reagent). Phosphorylated short peptides can resist such cleavage. Cleavage of short peptides can disrupt the donor (such as coumarin) and receptor fluorophores (fluorescein) on the short peptides, while the phosphorylated short peptides can maintain FRET. The calculation method of the ratio is as follows, and the ratio of the respective emission signals generated by the donor fluorophores emitted (after excitation at 400 nm) to the receptors is calculated. Emission signal ratio=emitted light by coumarin (445 nm)/emitted light by fluorescein (520 nm). If the FRET short peptide is phosphorylated (such as no kinase inhibitor), the emitted light ratio will remain in a lower level. If the FRET short peptide is non-phosphorylated (such as kinase inhibitor), the emitted light ratio will be in a higher level. In this way, the inhibitory effects of different compound inhibitors on BTK kinase activity would be distinguished.
The experiment was carried out according to the instructions of the Z′-LYTE® kinase test kit-tyrosine 1 peptide. Reagent preparation: 1.33× kinase buffer: 5× kinase buffer was diluted with water to 1.33× kinase buffer; an enzyme solution: the kinase was dissolved in 1.33× kinase buffer with the final working concentration being 3.32 nM; a short peptide solution: a short peptide stock solution (1 mM dissolved in DMSO) was dissolved in 1.33× kinase buffer with the final working concentration being 2 μM; Z′-LYTE Tyr01 phosphorylated short peptide solution, 0.6 μl of stock solution (1 mM dissolved in DMSO) was dissolved in 149.4 μl of 1.33× kinase buffer; an ATP solution: an ATP stock solution (10 mM aqueous solution) was dissolved in 1.33× kinase buffer with the final working concentration being 32 μM; a color-developing solution: color-developing solution B was dissolved in color-developing buffer with the final working concentration being 1× color-developing solution; 4× compound preparation: the compound was diluted in 3-fold gradient concentration to finally obtain 4% DMSO aqueous solution containing different concentrations of the compound, with the final working concentration being 3000, 1000, 333.33, 111.11, 37.04, 12.35, 4.12, 1.37 nM, 8 concentration points in total.
Specific steps of the experiment: In the experiment, there were three control groups, each with 8 replicate wells, which were C1 100% inhibition group (no ATP), C2 0% inhibition group (with ATP), and C3 100% phosphorylation group, respectively. 2.5 μl of serially diluted compound was added to each well of a 384-well plate, with double replicate wells, and 4% DMSO solution was added to wells C1, C2, and C3. After that, except for wells C3, 2.5 μl of BTK enzyme solution was added to each remaining well, which was left to stand at 4° C. for 30 minutes. After that, except for wells C3, 2.5 μl of short peptide solution was added to each well, and 5 μl of phosphorylated short peptide solution was added to each of wells C3. 2.5 μl of 1.33× kinase buffer was added to each of wells C1 and C3, and 2.5 μl of ATP solution was added to each of the remaining wells. The wells were centrifuged transiently, and the plate was shaken at 1000 rpm for 30 seconds to perform transient centrifuge. […]

[4] = system: rat arthritis model induced by type II collagen; test: Rat arthritis model induced by type II collagen (CIA), paw volume; type: in vivo; conditions: for inhibition ratio of area under the curve (IRAUC) of paw swelling: Day 13 to Day 19
Experimental: An appropriate amount of bovine type II collagen (CII, Chondrex (Redmond, WA, USA), Cat #20021) was weighed and dissolved in 0.1 mole of acetic acid (SPGC Sinopharm Chemical Reagent Co., Ltd (Shanghai, P.R. China), Cat #: 10000218.), which was formulated into a solution with a concentration of 6 mg/mL, stirred at 4° C. overnight, and added with an equal volume of Freund's incomplete adjuvant (Sigma-Aldrich. (St. Louis, MO, USA), Cat #: SLBW0366.), fully emulsified to prepare an emulsion with a CII concentration of 3 mg/mL.
Female Lewis rats were purchased from Beijing Vital River Laboratory Animal Technology Co., Ltd. (certificate number 20200928Aazz0619000579, initial body weight of 110-130 grams), and 6 rats were randomly selected as a normal group; and all of the remaining rats were immunized. In the first immunization on day 0, the rats except those in the normal group were anesthetized with isoflurane (Hebei Yipin Pharmaceutical Co., Ltd., Lot: C002170601.), and then disinfected with 75% alcohol, and 0.2 mL of emulsion was injected intradermally at the base of the tail thereof. A second challenge was carried out on day 7, and 0.2 mL of emulsion was intradermally injected using the same method. Once the animals developed symptoms on day 10, the incidence conditions thereof were closely monitored.
After grouping, the normal group was not administered, and the rats in the other groups were administered with the control vehicle, 0.25 mg/kg and 4 mg/kg of the reference GDC-0853, and each dose of compound 1 orally once a day until the end of the experiment.
The paw volume was measured on day 10 after immunization, and the left and right hind paw volumes (V) were measured every day after the paw volume increase was detected.
The arthrosis paw volumes of the left and right hind limbs of each animal were measured, and the average paw volume (APV) was calculated according to the following formula:
Average paw volume APV=(Vleft+Vright)/2
The average arthrosis paw volume of each animal before administration was used as the baseline (or considered […] of inflammation). The averaged paw swelling (APS) of each animal is calculated according to the following formula, wherein, APVd1 is the average paw volume of the animal administered on day 1, and APVdt is the average paw volume of the animal administered on day t:
The averaged paw swelling APSdt=(APVdt−APVd1)
The area under the curve (AUC) of the average paw volume swelling is the area under the curve of the arthrosis score swelling calculated by the trapezoid method, and the calculation formula is:
AUCAPS=½×(APSd1+APSd2)×(d2−d1)+½×(APSd2+APSd3)×(d3−d2)+ . . . +½×(APSdn+APSd(n-1))×(dn−dn-1).
Inhibition ratio IRAUC%=(Mean AUCAPS in the model group−AUCAPS in the drug-treated group)/(Mean AUCAPS in the model group−Mean AUCAPS in the normal group)×100%.

[5] = system: anti-IgD antibody-induced B cell activation in mice whole blood; test: In vivo efficacy of the inhibitory effect on BTK target: anti-IgD antibody-induced B cell activation in mice whole blood after oral dosing; design: species or system mouse; conditions: 20 mg/kg oral single dose, 16 h
Experimental: Objects: B cells in mice whole blood were induced and activated by the anti-IgD antibody, and the inhibitory effect of the compound of the present invention on B cell activation in vivo was studied, so as to determine the inhibitory effect of the compound of the present invention on the BTK target in vivo.
Methods: C57BL/6 mice (female, 18-20 g, purchased from Shanghai Lingchang Biotechnology Co., Ltd.) were grouped according to Table 1.
The animals of each group were administered, then were placed in CO2 for anesthesia at designated time points, blood samples were taken from […] via retro-orbital bleeding, and heparin was used for anticoagulation; 90 μL of whole blood was taken from mice of each group, and added to a 96 well culture plate, and anti-mouse IgD antibody (BIO-RAD, Cat #MCA4693) was added to each well to a final concentration of […] (respectively for each drug-treated group and anti-IgD antibody-inducted vehicle group); in addition, 90 μL of whole blood of mice in the vehicle group was taken and added to the 96-well culture plate, and PBS (phosphate buffer, GIBCO, Cat #C20012500BT) was added to each well to a final concentration of 0.01 μg/L (namely, the vehicle control group); Each group was mixed well and incubated in a 37° C./5% CO2 incubator for 4 hours. In addition, the blood of mice in the drug-treated group was centrifuged to separate plasma for blood concentration analysis.
B cell activation ratio=percentage of CD69^+CD19^+ double positive B cells/percentage of CD19^+ single positive B cells
Inhibition ratio=(percentage of B cell activation ratio in anti-IgD antibody-induced vehicle group−percentage of B cell activation ratio in drug-treated group)/(percentage of B cell activation ratio in anti-IgD antibody−induced vehicle group-percentage of B cell activation ratio in vehicle control group)×100%
All data are represented by mean±standard error. For the comparison between each drug-treated group and the anti-IgD antibody-induced vehicle group, p value was calculated by Graphpad Prism using one-way ANOVA analysis of variance and Dunnett's test, and for the comparison between each drug-treated group, p value was calculated by using unpaired t test.

| Compound | RLM, percentage of the remaining compound after 30 minutes of incubation [1] | MLM, percentage of the remaining compound after 30 minutes of incubation [2] | IC50 [3] | effect on paw volume compared with vehicle control group ([4]; 0.25 mg/kg oral QD) | inhibition ratio of area under the curve (IRAUC) of paw swelling ([4]; 0.25 mg/kg oral QD) | effect on paw volume compared with vehicle control group ([4]; 4 mg/kg oral QD) | inhibition ratio of area under the curve (IRAUC) of paw swelling ([4]; 4 mg/kg oral QD) | Inhibition ratio (%) on B cell activation [5] | B cell activation ratio (the population of activated B cells in total B cells) ([5]; mean ± standard error) |
| --- | --- | --- | --- | --- | --- | --- | --- | --- | --- |
| C[C@H]1CN(C2COC2)C[C@H](C)N1c1ccc(Nc2cc(-c3ccnc(-n4ncn5c6c(cc5c4=O)CC(C)(C)C6)c3CO)cn(C)c2=O)nc1 [Compound 4, 2-(5-((5-((2S,6S)-2,6-dimethyl-4-(oxetan-3-yl)piperazin-1-yl)pyridin-2-yl)amino)-3′-(hydroxymethyl)-1-methyl-6-oxo-1,6-dihydro-[3,4′-bipyridin]-2′-yl)-7,7-dimethyl-7,8-dihydro-2H-cyclopenta[4,5]pyrrolo[1,2-d][1,2,4]triazin-1(6H)-one] | 97.4% | 90.9% | 5 nM |  |  |  |  |  |  |
| C[C@H]1CNC[C@H](C)N1c1ccc(Nc2cc(-c3ccnc(-n4ccn5c6c(cc5c4=O)CC(C)(C)C6)c3CO)cn(C)c2=O)nc1 [Compound 5, 2-(5-((5-((2S,6S)-2,6-dimethylpiperazin-1-yl)pyridin-2-yl)amino)-3′-(hydroxymethyl)-1-methyl-6-oxo-1,6-dihydro-[3,4′-bipyridin]-2′-yl)-7,7-dimethyl-7,8-dihydro-2H-cyclopenta[4,5]pyrrolo[1,2-a]pyrazin-1(6H)-one] | 95.4% | 67.5% | 8 nM |  |  |  |  |  |  |
| C[C@H]1CN(C2COC2)CCN1c1ccc(Nc2cc(-c3ccnc(N4CCn5c(cc6c5CC(C)(C)C6)C4=O)c3CO)cn(C)c2=O)nc1 [GDC-0853, fenebrutinib, reference compound] | 81.0% | 76.3% |  | no improvement effect | −6.4% | significantly reduced | 144.7% | 9% | 29.3 ± 6.7 |

Source: patent US20230382916A1, “HETEROARYL HETEROCYCLIC COMPOUNDS AND USES THEREOF” (HUTCHISON MEDIPHARMA LIMITED, priority 2020, published 2023)
